Results published in article PMC4686731, “Screening of Pharmacologically Active Small Molecule Compounds Identifies Antifungal Agents Against Candida Biofilms” (Frontiers in Microbiology, 2015).
Converted amounts (≈) assume the structure as drawn. Read-outs that look alike come from different tables or passages of the source.

How the values were obtained:
C. albicans SC5314 [1] = assay: AST broth microdilution, high cell density planktonic mode; assay type: cell-based, Candida albicans; details: Candida albicans, SC5314, 24 h, read-out: Minimum inhibitory concentration (MIC)
Protocol: (§1) The in vitro susceptibility of well-characterized wild-type C. albicans strain SC5314, which was provided by Prof. N.A.R. Gow (University of Aberdeen, Aberdeen, UK) was tested against 1280 compounds from the Library of Pharmacologically Active Compounds (LOPAC^1280TM, Sigma–Aldrich, USA). The screen was performed with C. albicans SC5314, and hits were further confirmed with the type strains C. dubliniensis MYA 577, C. glabrata ATCC 2001, C. kusei ATCC 6258, C. palapsilosis ATCC 22019, and C. tropicalis ATCC13803.
(§2) To investigate the antifungal effects of the hit compounds, ASTs were conducted using broth microdilution assays with high cell densities of the planktonic mode, adhesion phase and biofilm mode against Candida strains (C. albicans, C. dubliniensis, C. glabrata, C. kusei, C. palapsilosis, and C. tropicalis). First, high density cell (1 × 10^7 cells/mL) suspensions were added to the RPMI medium containing each hit compound (10–1000 μM) in 96-well plates and incubated at 37°C for 24 h. Next, the 50% minimum inhibitory concentrations (MICs) of high-density Candida planktonic cultures were determined using the CellTiter-Glo luminescent cell viability kit, as described above. The antifungal effects of the hit compounds were also evaluated in the adhesion phase and the biofilm mode, in the same manner as the planktonic mode. Candida biofilms were produced as described previously ([Jin et al., 2004]). In brief, Candida cells were grown on SDA at 37°C for 18 h. A loopful of the yeast culture was then inoculated into yeast nitrogen base (YNB) (Difco, USA) medium supplemented with 50 mM glucose. After overnight broth culture in a rotary shaker at 75 rpm, the cells were washed twice with 20 mL of PBS (pH 7.2, 0.1 M). The yeast cells were re-suspended in YNB supplemented with 100 mM glucose and adjusted to an optical density of 0.38 (1 × 10^7 cells/mL) at 520 nm. This standardized cell suspension was used immediately to form biofilms in the wells of 96-well polystyrene culture plates (Iwaki, Tokyo, Japan). First, the cells were incubated for 90 min at 37°C in a shaker at 75 rpm to allow yeast adherence to the well surface (adhesion phase), before the medium was aspirated and each well was washed once with PBS to remove non-adherent cells. YNB containing 100 mM glucose was then pipetted into each well and the plate was incubated at 37°C in a shaker at 75 rpm for 24 h. Non-adherent cells were removed by pipetting and the biofilms were washed twice with PBS. Following this biofilm growth phase, microscopic examination of the cultures was performed to exclude contamination. These ASTs were repeated on three different occasions.

C. albicans SC5314 [2] = assay: AST, adhesion phase; assay type: cell-based; details: Candida albicans, SC5314, 1.5 h, read-out: Minimum inhibitory concentration (MIC)
Protocol: as §1, §2

C. dubliniensis MYA 577 = assay: AST, adhesion phase; assay type: cell-based; details: Candida dubliniensis, MYA577, 1.5 h, read-out: Minimum inhibitory concentration (MIC)
Protocol: as §1, §2

C. glabrata ATCC 2001 = assay: AST, adhesion phase; assay type: cell-based; details: Nakaseomyces glabratus, ATCC2001, 1.5 h, read-out: Minimum inhibitory concentration (MIC)
Protocol: as §1, §2

C. kusei ATCC 6258 = assay: AST, adhesion phase; assay type: cell-based; details: 1.5 h, read-out: Minimum inhibitory concentration (MIC)
Protocol: as §1, §2

[3] = test system: C. palapsilosis ATCC 22019; assay: AST, adhesion phase; assay type: cell-based; details: 1.5 h, read-out: Minimum inhibitory concentration (MIC)
Protocol: as §1, §2

C. tropicalis ATCC13803 = assay: AST, adhesion phase; assay type: cell-based; details: Candida tropicalis, ATCC13803, 1.5 h, read-out: Minimum inhibitory concentration (MIC)
Protocol: as §1, §2

[4] = test system: human gingival fibroblast (hGF) cells; assay: Cytotoxicity, WST-1 cell counting assay
Protocol: Primary human gingival fibroblast (hGF) cultures were established from discarded healthy gingival tissues after surgery with the informed consent of the donors ([Nikawa et al., 2006]). In brief, the gingival tissue specimens were treated overnight with 0.025% trypsin and 0.02% EDTA at 4°C. After trypsin neutralization, the lamina propria mucosae were separated from the epithelial layer and minced into pieces in a plastic tissue culture dish, and then maintained in Dulbecco’s modified Eagle medium (Nacalai Tesque, Kyoto, Japan) supplemented with 10% FBS, 100 U/mL penicillin, […] and 250 ng/mL amphotericin B (Nacalai Tesque, Kyoto, Japan). After the fibroblasts had migrated out of the tissue, the tissues were removed and the cells were cultured until they reached confluence. The cells were then seeded onto 96-well tissue culture plates (500 cells per well) and the culture medium was exchanged with fresh growth medium containing the hit compounds (0.98–1000 μM). The cells were cultured continuously and the culture medium containing the hit compounds was renewed every other day. The number of cells was evaluated using the WST-1 cell counting assay (Dojindo Laboratories, Kumamoto, Japan), as described previously ([Hamada et al., 2007]). […] All the experiments were performed using three samples for each condition in triplicate.
To evaluate the safety for clinical use, we tested the cytotoxic effects of the hit compounds using human cell cultures. We used hGF cells because of their ubiquitous nature and their widespread use in cytotoxicity testing ([Egusa et al., 2009]; [LaFleur et al., 2011]). The hGF cells were grown in 96-well plates and exposed to increasing doses (two-fold increments) of each hit compound for 4 days. The hGF metabolic activity was measured every other day and used as an indicator of cell viability.

Candida strains = assay: AST, adhesion phase, all Candida strains; assay type: cell-based; details: all six strains
Protocol: as §1
as §2, with “First, the cells were incubated for 90 min at 37°C in a shaker at 75 rpm to allow yeast adherence to the well surface (adhesion phase), before the medium was aspirated and each well was washed once with PBS to remove non-adherent cells. YNB containing 100 mM glucose was then pipetted into each well and the plate was incubated at 37°C in a shaker at 75 rpm for 24 h. Non-adherent cells were removed by pipetting and the biofilms were washed twice with PBS. Following this biofilm growth phase, microscopic examination of the cultures was performed to exclude contamination. These ASTs were repeated on three different occasions.” left out

[5] = 50% MIC, planktonic mode, 1 × 10^7 cells/mL, 24 h
[6] = adhesion phase (90 min adherence)
[7] = hGF cells, 4 days exposure, 50% reduction in cell number, WST-1

Row | SMILES | MIC (C. albicans SC5314 [1]; [5]) [µM] | MIC (C. albicans SC5314 [2]; [6]) [µM] | MIC (C. dubliniensis MYA 577; [6]) [µM] | MIC (C. glabrata ATCC 2001; [6]) [µM] | MIC (C. kusei ATCC 6258; [6]) [µM] | MIC [3, 6] [µM] | MIC (C. tropicalis ATCC13803; [6]) [µM] | cytotoxicity to hGF cells (in words) [4] | Cytotoxic concentration ([4]; human, 4 days) [µM] | concentration that inhibited the metabolic activity of Candida strains (Candida strains) [µM] | cytotoxicity to hGF cells (in words) ([4]; hGF cells) | Cytotoxic concentration [4, 7] [µM] | MIC (C. albicans SC5314 [1]) [µM] | MIC (C. albicans SC5314 [2]) [µM] | MIC (C. dubliniensis MYA 577) [µM] | MIC (C. glabrata ATCC 2001) [µM] | MIC (C. kusei ATCC 6258) [µM] | MIC [3] [µM] | MIC (C. tropicalis ATCC13803) [µM]
1 | Cc1ccc(S(=O)(=O)/C=C/C#N)cc1 [Bay11-7082] | 7.8 (≈ 1.62 µg/mL) | 31.3 (≈ 6.49 µg/mL) | 15.6 (≈ 3.23 µg/mL) | 31.3 (≈ 6.49 µg/mL) | 15.6 (≈ 3.23 µg/mL) | 15.6 (≈ 3.23 µg/mL) | 31.3 (≈ 6.49 µg/mL) | cytotoxic to hGF cells at low concentrations | 7.81 | < 31.3 | – | – | – | – | – | – | – | – | –
2 | CC(C)(C)c1ccc(S(=O)(=O)/C=C/C#N)cc1 [Bay11-7085] | 3.9 (≈ 0.972 µg/mL) | 31.3 (≈ 7.8 µg/mL) | 15.6 (≈ 3.89 µg/mL) | 31.3 (≈ 7.8 µg/mL) | 15.6 (≈ 3.89 µg/mL) | 7.8 (≈ 1.94 µg/mL) | 31.3 (≈ 7.8 µg/mL) | – | – | < 31.3 | cytotoxic to hGF cells at low concentrations | 7.81 | – | – | – | – | – | – | –
3 | Cc1c2ccncc2c(C)c2c1[nH]c1ccccc12 [Ellipticine] | 7.8 (≈ 1.92 µg/mL) | 62.5 (≈ 15.4 µg/mL) | 125 (≈ 30.8 µg/mL) | 62.5 (≈ 15.4 µg/mL) | 250 (≈ 61.6 µg/mL) | 125 (≈ 30.8 µg/mL) | 250 (≈ 61.6 µg/mL) | – | – | – | cytotoxic to hGF cells at low concentrations | 1.95 | – | – | – | – | – | – | –
4 | C[n+]1cc2c3c(ccc2c2ccc4cc5c(cc4c21)OCO5)OCO3 [Sanguinarine, Sanguinarine chloride hydrate] | – | – | – | – | – | – | – | – | – | < 15.6 | cytotoxic to hGF cells at low concentrations | 0.73 | < 1 | 15.6 | 15.6 | 15.6 | 7.8 | 7.8 | 7.8
